Read-outs that look alike come from different tables or passages of the source.
Legend:
Test in all cases: Kinase selectivity, P33-radiolabeled assay
Type in all cases: biochemical
Settings in all cases: 10 μM ATP
CAMK4 = molecular target: T1, CAMK4 (Homo sapiens, UniProt Q16566)
T1 construct: purchased Reaction Biology Corp
T1 sequence (Q16566 1-473): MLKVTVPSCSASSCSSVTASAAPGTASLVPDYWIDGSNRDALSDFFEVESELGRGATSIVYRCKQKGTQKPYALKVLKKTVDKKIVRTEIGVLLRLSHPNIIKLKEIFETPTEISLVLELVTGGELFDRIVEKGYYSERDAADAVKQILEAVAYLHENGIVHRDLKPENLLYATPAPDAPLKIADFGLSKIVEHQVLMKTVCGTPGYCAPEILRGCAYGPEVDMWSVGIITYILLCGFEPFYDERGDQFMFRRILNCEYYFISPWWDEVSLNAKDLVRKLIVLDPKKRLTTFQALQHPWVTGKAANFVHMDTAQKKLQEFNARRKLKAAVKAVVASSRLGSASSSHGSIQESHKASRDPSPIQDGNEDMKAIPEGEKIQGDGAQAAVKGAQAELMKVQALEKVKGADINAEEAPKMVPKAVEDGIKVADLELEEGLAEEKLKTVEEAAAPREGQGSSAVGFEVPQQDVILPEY
Method in brief: (§1)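 Duplicate single-concentration testing used 10 μM compound. The ATP concentration was also 10 μM.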

CDK9/cyclin T1 = molecular target: T2, CDK9/cyclin T1 (Homo sapiens, UniProt P50750)
T2 construct: purchased Reaction Biology Corp
T2 sequence (P50750 whole entry): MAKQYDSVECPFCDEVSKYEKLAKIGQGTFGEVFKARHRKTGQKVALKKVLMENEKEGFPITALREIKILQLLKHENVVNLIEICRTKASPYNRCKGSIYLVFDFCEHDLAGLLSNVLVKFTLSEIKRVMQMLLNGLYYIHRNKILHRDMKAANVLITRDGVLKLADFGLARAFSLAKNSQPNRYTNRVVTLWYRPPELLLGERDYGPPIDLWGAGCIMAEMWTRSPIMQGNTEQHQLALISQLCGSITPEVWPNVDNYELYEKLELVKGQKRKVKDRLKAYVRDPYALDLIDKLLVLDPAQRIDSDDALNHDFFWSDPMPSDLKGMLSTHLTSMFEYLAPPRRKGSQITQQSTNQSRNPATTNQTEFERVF
T2 sequence (O60563 whole entry partner): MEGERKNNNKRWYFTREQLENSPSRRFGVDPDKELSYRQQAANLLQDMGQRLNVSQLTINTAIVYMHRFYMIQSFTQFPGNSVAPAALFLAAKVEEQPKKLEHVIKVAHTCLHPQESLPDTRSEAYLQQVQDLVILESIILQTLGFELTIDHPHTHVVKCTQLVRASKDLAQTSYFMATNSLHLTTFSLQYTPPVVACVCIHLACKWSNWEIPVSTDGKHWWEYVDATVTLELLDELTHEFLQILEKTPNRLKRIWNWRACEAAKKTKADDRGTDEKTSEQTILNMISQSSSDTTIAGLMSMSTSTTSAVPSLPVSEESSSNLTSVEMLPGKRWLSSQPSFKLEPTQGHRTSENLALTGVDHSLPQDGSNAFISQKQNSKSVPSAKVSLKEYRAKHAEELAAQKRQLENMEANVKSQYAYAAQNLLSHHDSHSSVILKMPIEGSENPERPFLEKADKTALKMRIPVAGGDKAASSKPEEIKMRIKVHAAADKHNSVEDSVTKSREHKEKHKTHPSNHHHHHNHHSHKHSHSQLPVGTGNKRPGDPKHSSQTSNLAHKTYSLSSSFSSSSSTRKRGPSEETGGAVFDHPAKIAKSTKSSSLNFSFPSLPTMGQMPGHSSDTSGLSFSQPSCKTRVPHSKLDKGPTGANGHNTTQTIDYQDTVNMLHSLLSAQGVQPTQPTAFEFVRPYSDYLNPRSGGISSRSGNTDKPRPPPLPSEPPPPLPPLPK
Method in brief: as §1

MYO3b = molecular target: T3, MYO3b (Homo sapiens, UniProt Q8WXR4)
T3 construct: purchased Reaction Biology Corp
T3 sequence (Q8WXR4 1-1341): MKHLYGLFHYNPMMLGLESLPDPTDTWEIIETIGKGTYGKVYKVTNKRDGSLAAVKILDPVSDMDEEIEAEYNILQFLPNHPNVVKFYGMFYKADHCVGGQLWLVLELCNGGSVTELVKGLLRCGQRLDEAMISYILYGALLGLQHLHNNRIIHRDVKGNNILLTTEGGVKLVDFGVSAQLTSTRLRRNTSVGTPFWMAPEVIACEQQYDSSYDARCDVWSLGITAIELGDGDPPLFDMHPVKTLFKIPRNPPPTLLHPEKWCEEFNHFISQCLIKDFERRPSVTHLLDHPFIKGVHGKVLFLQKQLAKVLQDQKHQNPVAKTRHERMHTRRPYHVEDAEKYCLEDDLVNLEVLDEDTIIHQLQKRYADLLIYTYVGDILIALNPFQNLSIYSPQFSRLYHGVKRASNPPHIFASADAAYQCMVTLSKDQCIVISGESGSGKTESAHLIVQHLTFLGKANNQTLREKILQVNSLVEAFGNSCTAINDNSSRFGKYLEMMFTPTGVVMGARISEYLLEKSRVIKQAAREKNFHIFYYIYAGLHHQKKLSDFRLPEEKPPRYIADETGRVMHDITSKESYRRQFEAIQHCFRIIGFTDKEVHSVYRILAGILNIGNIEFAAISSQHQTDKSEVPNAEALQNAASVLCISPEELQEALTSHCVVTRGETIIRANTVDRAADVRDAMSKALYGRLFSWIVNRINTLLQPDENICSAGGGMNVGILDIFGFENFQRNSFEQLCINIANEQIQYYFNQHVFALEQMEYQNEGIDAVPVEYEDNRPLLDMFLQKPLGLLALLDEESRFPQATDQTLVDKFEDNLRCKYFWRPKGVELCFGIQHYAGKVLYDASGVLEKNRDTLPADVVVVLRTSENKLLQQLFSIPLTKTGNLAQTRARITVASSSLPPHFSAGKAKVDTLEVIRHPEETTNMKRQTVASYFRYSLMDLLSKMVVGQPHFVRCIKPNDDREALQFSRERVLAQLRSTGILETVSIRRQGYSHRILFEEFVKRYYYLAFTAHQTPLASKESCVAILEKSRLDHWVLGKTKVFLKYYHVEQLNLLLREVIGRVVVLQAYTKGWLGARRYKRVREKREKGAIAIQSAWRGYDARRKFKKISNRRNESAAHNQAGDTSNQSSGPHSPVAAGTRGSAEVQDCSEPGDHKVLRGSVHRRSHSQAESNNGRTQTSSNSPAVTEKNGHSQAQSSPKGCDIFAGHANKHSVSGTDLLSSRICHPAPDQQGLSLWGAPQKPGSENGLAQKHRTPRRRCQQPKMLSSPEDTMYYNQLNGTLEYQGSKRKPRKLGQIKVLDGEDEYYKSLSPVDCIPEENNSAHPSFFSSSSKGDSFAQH
Method in brief: as §1

OSR1/OXSR1 = molecular target: T4, OSR1/OXSR1 (Homo sapiens, UniProt O95747)
T4 construct: purchased Reaction Biology Corp
T4 sequence (O95747 whole entry): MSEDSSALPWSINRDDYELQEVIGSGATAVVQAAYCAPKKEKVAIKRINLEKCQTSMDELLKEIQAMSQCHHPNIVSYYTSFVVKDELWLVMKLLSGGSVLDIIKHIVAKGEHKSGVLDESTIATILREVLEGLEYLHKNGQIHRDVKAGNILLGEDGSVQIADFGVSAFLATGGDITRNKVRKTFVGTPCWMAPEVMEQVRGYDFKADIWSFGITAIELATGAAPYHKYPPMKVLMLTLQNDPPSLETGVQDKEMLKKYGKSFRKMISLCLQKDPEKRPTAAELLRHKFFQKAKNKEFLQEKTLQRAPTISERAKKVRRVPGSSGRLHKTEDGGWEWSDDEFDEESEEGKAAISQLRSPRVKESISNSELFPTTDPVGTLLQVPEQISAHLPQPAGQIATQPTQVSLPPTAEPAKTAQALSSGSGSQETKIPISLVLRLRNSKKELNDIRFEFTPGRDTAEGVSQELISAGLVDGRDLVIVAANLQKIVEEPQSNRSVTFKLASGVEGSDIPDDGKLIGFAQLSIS
Method in brief: as §1

PAK1 = molecular target: T5, PAK1 (Homo sapiens, UniProt Q13153)
T5 construct: purchased Reaction Biology Corp
T5 sequence (Q13153 whole entry): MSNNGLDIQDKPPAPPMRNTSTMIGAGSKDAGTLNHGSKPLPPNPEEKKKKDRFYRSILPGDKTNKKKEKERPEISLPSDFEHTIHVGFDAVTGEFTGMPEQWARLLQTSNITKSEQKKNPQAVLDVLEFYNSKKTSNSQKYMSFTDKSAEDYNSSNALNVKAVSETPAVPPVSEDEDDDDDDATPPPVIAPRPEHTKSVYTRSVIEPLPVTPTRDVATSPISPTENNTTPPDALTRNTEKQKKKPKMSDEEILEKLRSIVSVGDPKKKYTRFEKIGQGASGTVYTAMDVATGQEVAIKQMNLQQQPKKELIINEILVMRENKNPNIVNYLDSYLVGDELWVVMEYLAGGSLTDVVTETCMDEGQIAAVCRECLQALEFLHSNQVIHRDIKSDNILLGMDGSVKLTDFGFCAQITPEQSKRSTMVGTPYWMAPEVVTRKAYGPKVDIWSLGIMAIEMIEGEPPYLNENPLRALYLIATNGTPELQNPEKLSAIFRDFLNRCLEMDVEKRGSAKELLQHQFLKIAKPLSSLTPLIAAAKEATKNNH
Method in brief: as §1

PASK = molecular target: T6, PASK (Homo sapiens, UniProt Q96RG2)
T6 construct: purchased Reaction Biology Corp
T6 sequence (Q96RG2 whole entry): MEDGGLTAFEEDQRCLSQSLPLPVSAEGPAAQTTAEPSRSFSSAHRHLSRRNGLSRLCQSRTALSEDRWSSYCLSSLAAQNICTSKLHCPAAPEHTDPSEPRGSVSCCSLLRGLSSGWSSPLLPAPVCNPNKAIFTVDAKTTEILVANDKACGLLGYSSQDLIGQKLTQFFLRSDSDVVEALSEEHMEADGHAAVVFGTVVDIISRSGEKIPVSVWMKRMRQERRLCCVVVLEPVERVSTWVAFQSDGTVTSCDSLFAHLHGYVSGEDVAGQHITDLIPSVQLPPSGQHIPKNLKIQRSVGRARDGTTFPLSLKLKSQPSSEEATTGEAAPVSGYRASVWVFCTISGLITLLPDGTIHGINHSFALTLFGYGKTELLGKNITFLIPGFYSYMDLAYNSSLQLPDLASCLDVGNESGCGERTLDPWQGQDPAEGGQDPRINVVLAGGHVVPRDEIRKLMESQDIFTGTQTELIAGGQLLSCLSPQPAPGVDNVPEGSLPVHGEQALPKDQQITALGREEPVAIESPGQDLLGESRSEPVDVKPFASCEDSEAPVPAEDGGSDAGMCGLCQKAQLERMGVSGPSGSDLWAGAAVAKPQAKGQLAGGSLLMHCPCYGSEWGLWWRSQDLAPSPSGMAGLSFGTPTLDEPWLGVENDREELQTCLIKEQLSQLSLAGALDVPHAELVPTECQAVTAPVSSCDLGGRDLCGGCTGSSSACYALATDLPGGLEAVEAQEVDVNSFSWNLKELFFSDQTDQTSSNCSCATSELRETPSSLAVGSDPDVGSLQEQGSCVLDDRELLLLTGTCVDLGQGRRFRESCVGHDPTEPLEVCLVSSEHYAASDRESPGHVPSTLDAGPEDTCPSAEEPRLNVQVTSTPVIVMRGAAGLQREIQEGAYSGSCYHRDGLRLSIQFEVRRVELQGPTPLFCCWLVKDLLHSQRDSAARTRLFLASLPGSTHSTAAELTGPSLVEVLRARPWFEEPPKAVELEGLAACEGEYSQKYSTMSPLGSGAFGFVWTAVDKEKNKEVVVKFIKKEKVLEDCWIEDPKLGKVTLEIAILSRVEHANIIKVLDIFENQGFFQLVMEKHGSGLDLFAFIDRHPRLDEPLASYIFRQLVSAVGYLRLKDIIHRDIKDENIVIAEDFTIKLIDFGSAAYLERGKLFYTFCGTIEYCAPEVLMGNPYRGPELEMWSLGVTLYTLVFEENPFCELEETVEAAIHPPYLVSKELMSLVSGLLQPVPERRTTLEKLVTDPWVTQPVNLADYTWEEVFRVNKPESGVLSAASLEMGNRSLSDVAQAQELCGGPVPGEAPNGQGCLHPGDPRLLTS
Method in brief: as §1

PIM3 = molecular target: T7, PIM3 (Homo sapiens, UniProt Q86V86)
T7 construct: purchased Reaction Biology Corp
Method in brief: as §1

PKA = molecular target: T8, PKA (Homo sapiens, UniProt P17612)
T8 construct: purchased Reaction Biology Corp
Method in brief: as §1

WNK1 = molecular target: T9, WNK1 (Homo sapiens, UniProt Q9H4A3)
T9 construct: purchased Reaction Biology Corp
Method in brief: as §1

[1] = read-out: % Enzyme Activity (relative to DMSO controls) AVG
[2] = read-out: % Enzyme Activity (relative to DMSO controls) Data 1
[3] = read-out: % Enzyme Activity (relative to DMSO controls) Data 2

## CC(C)(C)C(=O)N1N=CC[C@H]1c1ccccc1 [GSK′963]
CAMK4; [1]
  remaining activity at 10 µM: 96.7%
CAMK4; [2]
  remaining activity at 10 µM: 95.5%
CAMK4; [3]
  remaining activity at 10 µM: 97.9%
CDK9/cyclin T1; [1]
  remaining activity at 10 µM: 108%
CDK9/cyclin T1; [2]
  remaining activity at 10 µM: 112%
CDK9/cyclin T1; [3]
  remaining activity at 10 µM: 105%
MYO3b; [1]
  remaining activity at 10 µM: 111%
MYO3b; [2]
  remaining activity at 10 µM: 111%
MYO3b; [3]
  remaining activity at 10 µM: 111%
OSR1/OXSR1; [1]
  remaining activity at 10 µM: 120%
OSR1/OXSR1; [2]
  remaining activity at 10 µM: 127%
OSR1/OXSR1; [3]
  remaining activity at 10 µM: 112%
PAK1; [1]
  remaining activity at 10 µM: 92.8%
PAK1; [2]
  remaining activity at 10 µM: 92.5%
PAK1; [3]
  remaining activity at 10 µM: 93%
PASK; [1]
  remaining activity at 10 µM: 102%
PASK; [2]
  remaining activity at 10 µM: 103%
PASK; [3]
  remaining activity at 10 µM: 101%
PIM3; [1]
  remaining activity at 10 µM: 116%
PIM3; [2]
  remaining activity at 10 µM: 119%
PIM3; [3]
  remaining activity at 10 µM: 113%
PKA; [1]
  remaining activity at 10 µM: 110%
PKA; [2]
  remaining activity at 10 µM: 112%
PKA; [3]
  remaining activity at 10 µM: 107%
WNK1; [1]
  remaining activity at 10 µM: 81.7%
WNK1; [2]
  remaining activity at 10 µM: 78.3%
WNK1; [3]
  remaining activity at 10 µM: 85.1%
